Here are results for 42 compounds from patent publication US8354403B2, “Pyrrolidine derived beta 3 adrenergic receptor agonists” (Merck Sharp & Dohme Corp., priority 2009, dated 2013).

For this assay, the target named is T1, human β3 adrenergic receptor (Homo sapiens, UniProt P13945).
T1 construct: expressed in transfected cells; host or cells: Chinese hamster ovary (CHO) cells, stably transfected
Description: Beta-3 agonist in vitro functional assay: cAMP production (LANCE TR-FRET) in CHO cells stably transfected with the cloned β3 receptor. The assay is classed as cell-based. The method, boiled down:
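CHO cells stably expressing the cloned receptor, in HEPES-buffered HBSS with BSA and 0.6 mM IBMX, 6,000 cells/well, exposed to compound for 30 min at RT. cAMP read by LANCE TR-FRET against a cAMP standard curve. Isoproterenol defines maximal stimulation.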

Setting [1] is: Table 8, Beta-3 agonist in vitro functional assay, read-out: Human β3 agonist functional activity.
[2] abbreviates: Table 9, Beta-3 agonist in vitro functional assay, read-out: Human β3 agonist functional activity.
The mark [3] stands for this setting: Table 5, cAMP, CHO cells, read-out: Human β3 agonist functional activity.
The mark [4] stands for this setting: Table 10, Beta-3 agonist in vitro functional assay, read-out: Human β3 agonist functional activity.
[5] abbreviates: Table 12, human β3 functional activity given as ranges, read-out: Human β3 agonist functional activity.
Where [6] appears, read: Table 11, cAMP, CHO cells, read-out: Human β3 agonist functional activity.

Structures are written as SMILES. Like-named read-outs stand apart in the source and are kept apart here.

T1 sequence (P13945 whole entry): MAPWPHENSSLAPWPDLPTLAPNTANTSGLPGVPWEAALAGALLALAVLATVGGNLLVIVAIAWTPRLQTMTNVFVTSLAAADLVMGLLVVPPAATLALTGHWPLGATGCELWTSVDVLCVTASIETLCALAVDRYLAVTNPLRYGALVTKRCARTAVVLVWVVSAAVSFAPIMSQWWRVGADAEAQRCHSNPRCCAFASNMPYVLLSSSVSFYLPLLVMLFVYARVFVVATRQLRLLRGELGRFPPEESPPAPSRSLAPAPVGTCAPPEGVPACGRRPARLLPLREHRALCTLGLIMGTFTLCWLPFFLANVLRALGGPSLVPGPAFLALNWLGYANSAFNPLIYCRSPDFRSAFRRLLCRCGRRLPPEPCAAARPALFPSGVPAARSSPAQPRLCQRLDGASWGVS

Consider `O=C(c1ccc(C[C@@H]2CC[C@H]([C@H](O)c3cccnc3)N2)cc1)N1CCC2(CC1)C(=O)NCN2c1ccccc1` [Example 259], for which the EC50 under setting [1] lay within 1 to 9.9 nM.

`Cn1nnc(CN2CCN(C(=O)c3ccc(C[C@@H]4CC[C@H]([C@H](O)c5ccccc5)N4)cc3)CC2)n1` [Example 401]: under setting [2], the EC50 lay within 10 to 99.9 nM.

In the case of `CC(c1ccccn1)N1CCN(C(=O)c2ccc(CC3CCC(C(O)c4ccccc4)N3)cc2)CC1` (stereo not drawn) [Example 430], under setting [2], the EC50 fell in the range of 1 to 9.9 nM.

Regarding `O=C(O)c1csc(N2CCN(C(=O)c3ccc(C[C@@H]4CC[C@H]([C@H](O)c5ccccc5)N4)cc3)CC2)n1` [Example 382], the EC50 under setting [2] was 999 to 3000 nM. Turning to `COc1cc(OC)nc(C2CCN(C(=O)c3ccc(C[C@@H]4CC[C@H]([C@H](O)c5ccccc5)N4)cc3)CC2)n1` [Example 115], the EC50 under setting [3] was in the range of 100 to 999 nM. Turning to `CCS(=O)(=O)n1cc2c(n1)CN(C(=O)c1ccc(C[C@@H]3CC[C@H]([C@H](O)c4ccccc4)N3)cc1)C2` [Example 29], the EC50 (Table 4, cAMP, CHO cells, read-out: Human β3 agonist functional activity) was 100 to 999 nM. As to `CC(C(=O)NCC1CC1)N1CCN(C(=O)c2ccc(C[C@@H]3CC[C@H]([C@H](O)c4ccccc4)N3)cc2)CC1` (stereo partly drawn) [Example 447], the EC50 under setting [4] lay within 10 to 99.9 nM. For `CC(C(=O)NC(C1CC1)C1CC1)N1CCN(C(=O)c2ccc(C[C@@H]3CC[C@H]([C@H](O)c4ccccc4)N3)cc2)CC1` (stereo partly drawn) [Example 451], the EC50 under setting [4] fell in the range of 10 to 99.9 nM. Regarding `O=C1OC2(CCN(C(=O)c3ccc(C[C@@H]4CC[C@H]([C@H](O)c5cccnc5)N4)cc3)CC2)CC1Cc1ccc(F)cc1` (stereo partly drawn) [Example 277], under setting [1], the EC50 is 1 to 9.9 nM. `CC(C(=O)N1CCc2nc(C3CC3)sc2C1)N1CCN(C(=O)c2ccc(C[C@@H]3CC[C@H]([C@H](O)c4ccccc4)N3)cc2)CC1` (stereo partly drawn) [Example 505]: the EC50 under setting [4] was less than 1 nM.

As to `CCC(c1ccccn1)N1CCN(C(=O)c2ccc(CC3CCC(C(O)c4ccccc4)N3)cc2)CC1` (single isomer, unassigned) [Example 588], under setting [5], the EC50 is 1 to 9.9 nM. For the compound `O=C1NCC2(CCN(C(=O)c3ccc(C[C@@H]4CC[C@H]([C@H](O)c5ccccc5)N4)cc3)CC2)O1` [Example 272], under setting [1], the EC50 lay in the range of 100 to 999 nM. Turning to `CC(C(=O)N1CC=CCC1)N1CCN(C(=O)c2ccc(C[C@@H]3CC[C@H]([C@H](O)c4ccccc4)N3)cc2)CC1` (stereo partly drawn) [Example 492], under setting [4], the EC50 lay in the range of 10 to 99.9 nM. Take `O=C(c1ccc(C[C@@H]2CC[C@H]([C@H](O)c3ccccc3)N2)cc1)N1CCN(c2ccccn2)C(=O)C1` [Example 546]: the EC50 under setting [6] was 100 to 999 nM. Take `O=C(c1ccc(C[C@@H]2CC[C@H]([C@H](O)c3ccccc3)N2)cc1)N1CCN(c2nccc(-c3ccccc3)n2)CC1` [Example 376]: under setting [2], the EC50 is 10 to 99.9 nM. On the same count and under the same terms, the figure for `O=C(c1ccc(C[C@@H]2CC[C@H]([C@H](O)c3ccccc3)N2)cc1)N1CCN(Cc2ccon2)CC1` [Example 393] is 10 to 99.9 nM.

Turning to `COC[C@H](C)NC(=O)C(C)N1CCN(C(=O)c2ccc(C[C@@H]3CC[C@H]([C@H](O)c4ccccc4)N3)cc2)CC1` (stereo partly drawn) [Example 446], under setting [4], the EC50 fell in the range of 10 to 99.9 nM.

Consider `CS(=O)(=O)N1CCN(C(=O)c2ccc(C[C@@H]3CC[C@H]([C@H](O)c4ccccc4)N3)cc2)CC1` [Example 345], for which the EC50 under setting [2] is 100 to 999 nM. Regarding `O=C(c1ccc(C[C@@H]2CC[C@H]([C@H](O)c3ccccc3)N2)cc1)N1CCN(c2nccs2)CC1` [Example 378], under setting [2], the EC50 is 10 to 99.9 nM.

As to `CC(C(=O)N1CCc2ccc(Cl)cc2C1)N1CCN(C(=O)c2ccc(C[C@@H]3CC[C@H]([C@H](O)c4ccccc4)N3)cc2)CC1` (stereo partly drawn) [Example 510], the EC50 under setting [4] lay within 1 to 9.9 nM. Same read-out and setting: to `CC(C(=O)N1C(C)CCC1C)N1CCN(C(=O)c2ccc(C[C@@H]3CC[C@H]([C@H](O)c4ccccc4)N3)cc2)CC1` (stereo partly drawn) [Example 479] belongs 10 to 99.9 nM. For `O=C(c1ccc(C[C@@H]2CC[C@H]([C@H](O)c3ccccc3)N2)cc1)N1CCC(S(=O)(=O)c2ccc(F)c(F)c2)CC1` [Example 138], the EC50 under setting [3] is 10 to 99.9 nM. On the same count and under the same terms, to `O=C(c1ccc(C[C@@H]2CC[C@H]([C@H](O)c3ccccc3)N2)cc1)N1CCC(c2nc3ccccc3o2)CC1` [Example 78] belongs 100 to 999 nM.

With `CCN(C(=O)C(C)N1CCN(C(=O)c2ccc(C[C@@H]3CC[C@H]([C@H](O)c4ccccc4)N3)cc2)CC1)C(C)C` (stereo partly drawn) [Example 515], the EC50 under setting [4] lay within 10 to 99.9 nM.

`O=C(c1ccc(C[C@@H]2CC[C@H]([C@H](O)c3ccccc3)N2)cc1)N1CCC(S(=O)(=O)c2ccc(Cl)cc2)CC1` [Example 136]: the EC50 under setting [3] fell in the range of 10 to 99.9 nM.

With `O=C(c1ccc(C[C@@H]2CC[C@H]([C@H](O)c3ccccc3)N2)cc1)N1CCC(C(=O)O)(c2ccccc2)CC1` [Example 241], the EC50 under setting [1] fell in the range of 100 to 999 nM. For the compound `O=C(c1ccc(CC2CCC(C(O)c3ccccc3)N2)cc1)N1CCC2(CC1)CC(C(F)(F)F)OC2=O` (single isomer, unassigned) [Example 565], under setting [5], the EC50 lay within 1 to 9.9 nM. For the compound `O=C(c1ccc(C[C@@H]2CC[C@H]([C@H](O)c3ccccc3)N2)cc1)N1CCC2(CC1)C(=O)NCC2c1ccccc1` (stereo partly drawn) [Example 261], the EC50 under setting [1] is less than 1 nM. Turning to `O=C(c1ccc(C[C@@H]2CC[C@H]([C@H](O)c3ccccc3)N2)cc1)N1CCC2(CC1)C(=O)NCC2c1ccc(C(F)(F)F)cc1` (stereo partly drawn) [Example 263], under setting [1], the EC50 is less than 1 nM.

For `O=C1CC2(CCN(C(=O)c3ccc(C[C@@H]4CC[C@H]([C@H](O)c5ccccc5)N4)cc3)CC2)S(=O)(=O)c2sccc21` [Example 340], the EC50 under setting [1] fell in the range of 1 to 9.9 nM. Turning to `NC1CCCC12CCN(C(=O)c1ccc(C[C@@H]3CC[C@H]([C@H](O)c4ccccc4)N3)cc1)CC2` (stereo partly drawn) [Example 315], under setting [1], the EC50 fell in the range of 100 to 999 nM.

Regarding `O=C(c1ccc(C[C@@H]2CC[C@H]([C@H](O)c3ccccc3)N2)c(Br)c1)N1CC2C(C1)C2n1cnnn1` (stereo partly drawn) [Example 609], the EC50 (Table 13, human Beta-3 agonist functional activity given as range, read-out: Human β3 agonist functional activities) was in the range of 1 to 9.9 nM. With `Cn1nnc(C2CCN(C(=O)c3ccc(C[C@@H]4CC[C@H]([C@H](O)c5ccccc5)N4)cc3)CC2)n1` [Example 106], the EC50 under setting [3] was 10 to 99.9 nM. Consider `Cc1nonc1CN(C)C(=O)C(C)N1CCN(C(=O)c2ccc(C[C@@H]3CC[C@H]([C@H](O)c4ccccc4)N3)cc2)CC1` (stereo partly drawn) [Example 512], for which the EC50 under setting [4] lay within 10 to 99.9 nM. In the case of `O=C(c1ccc(C[C@@H]2CC[C@H]([C@H](O)c3cccnc3)N2)cc1)N1CCN(c2nccs2)CC1` [Example 379], under setting [2], the EC50 was in the range of 100 to 999 nM. As to `CC(C(=O)N1CCCCCC1)N1CCN(C(=O)c2ccc(C[C@@H]3CC[C@H]([C@H](O)c4ccccc4)N3)cc2)CC1` (stereo partly drawn) [Example 511], under setting [4], the EC50 was in the range of 100 to 999 nM. For `O=C(c1ccc(C[C@@H]2CC[C@H]([C@H](O)c3ccccc3)N2)cc1)N1CCC(n2c(=O)[nH]c3ccccc32)CC1` [Example 74], under setting [3], the EC50 lay in the range of 100 to 999 nM.

For the compound `O=C(c1ccc(C[C@@H]2CC[C@H]([C@H](O)c3ccccc3)N2)cc1)N1CCC(S(=O)(=O)c2ccccc2)CC1` [Example 127], the EC50 under setting [3] is 10 to 99.9 nM.

Turning to `CC(c1ccccn1)N1C2CCC1CN(C(=O)c1ccc(CC3CCC(C(O)c4ccccc4)N3)cc1)C2` (stereo not drawn) [Example 539], the EC50 under setting [6] fell in the range of 10 to 99.9 nM.

As for `O=C(c1ccc(CC2CCC(C(O)c3ccccc3)N2)cc1)N1CCC2(CCCC2=NO)CC1` (stereo not drawn) [Example 317], the EC50 under setting [1] lay within 10 to 99.9 nM. As to `CC(C(=O)NCC1CCC1)N1CCN(C(=O)c2ccc(C[C@@H]3CC[C@H]([C@H](O)c4ccccc4)N3)cc2)CC1` (stereo partly drawn) [Example 452], the EC50 under setting [4] lay within 1 to 9.9 nM.

As for `Cc1cncn1C1CCN(C(=O)c2ccc(C[C@@H]3CC[C@H]([C@H](O)c4ccccc4)N3)cc2)CC1` [Example 86], the EC50 under setting [3] was 100 to 999 nM.
